The source of these data is PubChem BioAssay AID624383 (Sanford-Burnham Center for Chemical Genomics, 2012).

SMILES strings stand for the structures. The source made the active and inactive calls. The rule behind the calls is not given here.

For the assay, the target named is Small ubiquitin-related modifier 1 (Homo sapiens) (UniProt P63165). Briefly: inhibitors of SUMO1 partner interactions, dose response, biochemical, FRET (AID 624383). Particulars: SUMO1 protein-protein interaction, in vitro.
Sequence of Small ubiquitin-related modifier 1 (Homo sapiens) (P63165 whole entry, looked up): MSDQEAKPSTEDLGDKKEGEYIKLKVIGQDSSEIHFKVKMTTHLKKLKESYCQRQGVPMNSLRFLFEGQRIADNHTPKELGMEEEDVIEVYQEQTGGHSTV
`CCN(CC)P(=O)(NC(=O)C(Cl)(Cl)Cl)N(CC)CC.[Cl-].[Cl-].[Cl-].[Nd+3]`: the IC50 is 601 nM. In the case of `C=Cc1c(C)c2cc3[nH]c(cc4nc(cc5nc(cc1[nH]2)C(C)=C5CCC(=O)O)C(CCC(=O)O)=C4C)c(C)c3C=C`, the IC50 is 1810 nM. In the case of `C[c-]1[c-](C)[c-](C)[c-](C)[c-]1C.[Fe].c1cc2nccc(N3CCCC3)[c-]2c1` (stereo not drawn), the IC50 result is “inactive”.
